By MIC is commonly meant the lowest concentration that inhibits growth of the organism. A lower MIC goes with inhibition by little substance. By IC50 is commonly meant the concentration at which inhibition is half-maximal. As a reminder, the bioavailability is dose-corrected exposure relative to a reference, in per cent. Low readings indicate little systemic uptake, high ones much systemic uptake.

The values that follow come from ChEMBL document CHEMBL2401704, “Inhibition of rhodesain as a novel therapeutic modality for human African trypanosomiasis” (J Med Chem, 2013).

The subject of data set [1] is Trypanosoma brucei brucei. Kind of data set: Antitrypanosomal activity against blood stream form of Trypanosoma brucei brucei. Format: functional, organism-based. Conditions: for EC50: read-out: ED50 (the source's name).
For the next data set, the system named is Trypanosoma brucei. Nature of the data set: Inhibition of Trypanosoma brucei rhodesain assessed as second order rate constant.
A short description of data set [2]: Selectivity index, ratio of ED50 for human HL60 cells to ED50 for Trypanosoma brucei brucei. Format: toxicity, cell-based, HL-60. As to conditions: read-out: Ratio ED50.
A short description of data set [3]: Cytotoxicity against human HL60 cells. Format: cell-based, HL-60. Conditions: for CC50: read-out: ED50 (the source's name); for MCC: read-out: MIC.
A short description of data set [4]: Inhibition of Trypanosoma brucei recombinant rhodesain.
The test system of data set [5] is Trypanosoma brucei brucei. Kind of data set: Antitrypanosomal activity against procyclic form of Trypanosoma brucei brucei. Conditions: read-out: ED50 (the source's name). In kind it is functional.
Data set [6] is described as follows: Oral bioavailability in Sprague-Dawley rat. Conditions: in vivo. In kind it is ADME, organism-based.
The next data set concerns the target Trypsin (Homo sapiens, UniProt P07477+P07478+P35030). Kind of data set: Inhibition of trypsin (unknown origin). In kind it is protein assay.
A short description of data set [7]: Inhibition of cathepsin B (unknown origin). Details: species or system Homo sapiens.
Data set [8] can be described thus: Inhibition of Trypanosoma brucei rhodesain.
The next data set has as its target Cruzipain (Trypanosoma cruzi, UniProt P25779). Kind of data set: Inhibition of Trypanosoma cruzi cruzain.
In a further data set the target is T1, Papain (Carica papaya, UniProt P00784).
T1 sequence (P00784 whole entry): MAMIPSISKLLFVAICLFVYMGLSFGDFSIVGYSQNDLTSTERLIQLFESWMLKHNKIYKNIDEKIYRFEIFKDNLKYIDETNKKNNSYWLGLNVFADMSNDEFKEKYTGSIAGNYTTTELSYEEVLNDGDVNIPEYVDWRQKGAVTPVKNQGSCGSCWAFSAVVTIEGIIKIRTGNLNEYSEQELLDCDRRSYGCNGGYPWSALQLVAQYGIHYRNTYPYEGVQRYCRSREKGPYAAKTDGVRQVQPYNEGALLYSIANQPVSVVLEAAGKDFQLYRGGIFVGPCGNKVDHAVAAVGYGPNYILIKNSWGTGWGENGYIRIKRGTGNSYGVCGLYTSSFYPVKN
Kind of data set: Inhibition of papaya papain.

The structures appear in SMILES notation. Converted amounts (≈) assume the structure as drawn. Residues, ends and D or L forms follow the SMILES beside them. *: point of attachment. Cbz = O=C(OCc1ccccc1)*

Cruzipain, sequence (P25779 whole entry): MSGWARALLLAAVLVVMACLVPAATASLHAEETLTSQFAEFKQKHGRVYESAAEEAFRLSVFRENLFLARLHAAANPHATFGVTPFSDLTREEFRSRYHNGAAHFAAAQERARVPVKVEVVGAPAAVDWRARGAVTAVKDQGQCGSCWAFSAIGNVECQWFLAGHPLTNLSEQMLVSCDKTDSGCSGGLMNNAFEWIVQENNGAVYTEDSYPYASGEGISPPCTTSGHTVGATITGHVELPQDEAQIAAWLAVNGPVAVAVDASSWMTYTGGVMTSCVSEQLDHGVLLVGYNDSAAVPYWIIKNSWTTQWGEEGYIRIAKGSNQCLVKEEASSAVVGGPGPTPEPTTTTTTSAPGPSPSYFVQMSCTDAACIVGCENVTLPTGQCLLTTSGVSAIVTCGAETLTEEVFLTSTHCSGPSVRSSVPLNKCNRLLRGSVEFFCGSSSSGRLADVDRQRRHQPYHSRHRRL

`CC[C@H](C)[C@H](NS(=O)(=O)c1cccc2ccccc12)C(=O)N[C@H](C=O)Cc1c[nH]c2ccccc12`: in [1], the MIC amounted to 10 µM (≈ 4.92 µg/mL) and the EC50 was 18 nM. Also, the K in the data set on Trypanosoma brucei worked out at 3.54 ×10⁷ /M/min. In data set [2], the selectivity ratio turned out to be 1150. Further, in data set [3], the CC50 was determined as 21000 nM and the MCC was over 100 µM.
Take `CN1CCN(C(=O)N[C@@H](Cc2ccccc2)C(=O)N[C@H](/C=C/S(=O)(=O)c2ccccc2)CCc2ccccc2)CC1` [K-777]: the EC50 came out at 900 nM in data set [1] and 5800 nM in data set [5]. In addition, the K with Trypanosoma brucei is 9 ×10⁶ /M/min. Besides, in [4], the IC50 was 0.35 nM. Besides, the bioavailability in [6] was determined as 19.9%.
As to `CS(=O)(=O)c1sc(C(=O)NC(=S)Nc2ccc(OC(F)(F)F)cc2)c2ccccc12`, the IC50 on Trypsin is over 50000 nM; in data set [7], 11000 nM; in [8], 4200 nM; at Cruzipain, 6900 nM; against Papain it was over 50000 nM.
In the case of `Cc1ccc(C(=O)Nc2ccc(S(=O)(=O)O)c3cc(S(=O)(=O)O)cc(S(=O)(=O)O)c23)cc1NC(=O)c1cccc(NC(=O)Nc2cccc(C(=O)Nc3cc(C(=O)Nc4ccc(S(=O)(=O)O)c5cc(S(=O)(=O)O)cc(S(=O)(=O)O)c45)ccc3C)c2)c1` [SURAMIN], in data set [1], the EC50 was 130 nM. Also, the selectivity ratio in [2] is 1900.
As for `CN(C(=O)[C@H](Cc1ccccc1)NC(=O)OCc1ccccc1)N(C#N)Cc1ccccc1`, the EC50 came to 1100 nM in data set [1] and 400 nM in [5]. Moreover, the IC50 in data set [4] was 0.19 nM.
With `O=C(Nc1ccc(Cl)cc1)Nc1csc(-c2ccc(C(F)(F)F)cc2)n1`, the IC50 against Trypsin was over 50000 nM; in [7] it was 10800 nM; in data set [8] it was 2000 nM; at Cruzipain it was 1200 nM; against Papain, over 50000 nM.
Turning to `O=C(N[C@H](/C=C/S(=O)(=O)c1ccccc1)CCc1ccccc1)[C@H](Cc1ccccc1)NC(=O)N1CCOCC1`, the EC50 in [1] was 5600 nM; in data set [5], 7300 nM. Besides, the IC50 in data set [4] amounted to 0.36 nM. The bioavailability in data set [6] came to 3%.
`Cn1nc(C(F)(F)F)cc1-c1ccc(NC(=O)Nc2cccc(C(F)(F)F)c2)s1`: the half-inhibitory concentration (IC50) on Trypsin was over 50000 nM; in data set [7] it was 11000 nM; in [8], 3000 nM; at Cruzipain it was 3100 nM; against Papain, over 50000 nM.
As to `O=C[C@H](Cc1ccc(O)cc1)NC(=O)[C@H](Cc1ccccc1)NC(=O)OCc1ccccc1` (Cbz-Phe-Tyr-aldehyde), in data set [1], inhibition of growth (MIC) required 100 µM (≈ 44.7 µg/mL) and the EC50 came out at 45 nM. Besides, the K in the data set with Trypanosoma brucei is 1.38 ×10⁸ /M/min. In addition, the selectivity ratio in [2] came to 482. Moreover, in data set [3], the CC50 stood at 21500 nM and the MCC was over 100 µM.
`CCOC(=O)c1ccc(NC(=S)NC(=O)c2ccc(Cl)c(Cl)c2)cc1`: the 50% inhibitory concentration (IC50) against Trypsin was over 50000 nM; in [7] it was 10700 nM; in [8] it was 2000 nM; on Cruzipain, 1900 nM; against Papain, over 50000 nM.
In the case of `CN(C(=O)[C@H](Cc1ccccc1)NC(=O)OCc1ccccc1)N(C#N)CCCc1ccccc1`, the EC50 in data set [1] worked out at 1200 nM; in data set [5], 700 nM. In data set [4], the concentration for half-maximal inhibition (IC50) turned out to be 2 nM.
